Laboratory results: US20250313563A1, “GLYCOGEN SYNTHASE KINASE 3 INHIBITORS AND USES THEREOF” (The Broad Institute, Inc., priority 2022, published 2025)
Like-named read-outs stand apart in the source and are kept apart here.

Tests used:
[1] = target: GSK3α (GST-full length GSK3α) (Homo sapiens (Human), UniProt P49840); experiment: GSK3α TR-FRET kinase assay; type: biochemical
Method in brief: (§1)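 Readout: anti-pSer641 Tb antibody/streptavidin-d2 signal after 60 min, expressed as 665/615 ratio and fitted versus log concentration for IC50. Enzyme: 1 nM GST-GSK3 (α or β), compound-preincubated 30 min. Conditions: pH 7.5 Tris buffer with MgCl2, DTT, BSA; ATP at 4 or 2 μM, or 1 mM; 100 min.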

[2] = target: GSK3b (GST-full length GSK3b) (Homo sapiens (Human), UniProt P49841); experiment: GSK3b TR-FRET kinase assay; type: biochemical
Method in brief: as §1

[3] = 1 nM GSK3α, 4 μM ATP, 30 minute preincubation, Table 16, read-out: GSK3-A TR-FRET BIOCHEMICAL (TR-FRET)
[4] = 1 nM GSK3b, 2 μM ATP, 30 minute preincubation, Table 16, read-out: GSK3-B TR-FRET BIOCHEMICAL (TR-FRET)
[5] = GSK3-A (TR-FRET 1 mM ATP), GMean, IC50, 1 mM ATP, geometric mean
[6] = GSK3-B (TR-FRET 1 mM ATP), GMean, IC50, 1 mM ATP, geometric mean
[7] = 1 nM GSK3α, 4 μM ATP, 30 minute preincubation, read-out: GSK3-A TR-FRET BIOCHEMICAL (TR-FRET), IC50
[8] = 1 nM GSK3b, 2 μM ATP, 30 minute preincubation, read-out: GSK3-B TR-FRET BIOCHEMICAL (TR-FRET), IC50

GSK3α (GST-full length GSK3α), sequence (P49840 whole entry): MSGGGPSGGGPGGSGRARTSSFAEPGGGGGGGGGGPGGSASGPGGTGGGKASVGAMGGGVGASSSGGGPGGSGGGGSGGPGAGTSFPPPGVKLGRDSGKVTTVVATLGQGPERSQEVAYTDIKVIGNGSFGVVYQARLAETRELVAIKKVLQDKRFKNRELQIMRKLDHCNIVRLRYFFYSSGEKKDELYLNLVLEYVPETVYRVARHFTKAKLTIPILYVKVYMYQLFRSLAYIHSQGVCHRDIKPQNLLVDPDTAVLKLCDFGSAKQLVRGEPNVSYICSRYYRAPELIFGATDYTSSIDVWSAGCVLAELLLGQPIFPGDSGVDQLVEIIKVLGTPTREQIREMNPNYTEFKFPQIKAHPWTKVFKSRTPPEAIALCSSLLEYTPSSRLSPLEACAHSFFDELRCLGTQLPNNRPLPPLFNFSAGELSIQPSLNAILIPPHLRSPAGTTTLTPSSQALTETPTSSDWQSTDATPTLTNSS
GSK3b (GST-full length GSK3b), sequence (P49841 whole entry): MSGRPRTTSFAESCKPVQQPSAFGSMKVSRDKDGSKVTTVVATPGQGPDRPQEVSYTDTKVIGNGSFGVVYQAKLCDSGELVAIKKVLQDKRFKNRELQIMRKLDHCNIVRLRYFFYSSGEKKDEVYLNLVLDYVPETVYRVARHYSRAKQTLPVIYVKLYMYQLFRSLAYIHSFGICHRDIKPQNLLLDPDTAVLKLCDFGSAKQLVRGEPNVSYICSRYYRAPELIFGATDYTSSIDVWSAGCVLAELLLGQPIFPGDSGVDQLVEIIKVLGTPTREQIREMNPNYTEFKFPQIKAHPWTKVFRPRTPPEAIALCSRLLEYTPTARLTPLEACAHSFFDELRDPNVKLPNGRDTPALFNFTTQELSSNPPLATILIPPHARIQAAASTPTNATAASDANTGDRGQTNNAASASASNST

SMILES | IC50 [1, 3] | IC50 [2, 4] | IC50 [1, 7] | IC50 [2, 8] | further results
COCc1ccc(S(=O)(=O)N2CCC3(CC2)C2=C(CC(C)(C)CC2=O)Nc2n[nH]cc23)cc1 [Compound 947250] | ≤ 0.1 µM | ≤ 0.1 µM | – | – | –
CCOc1cccc(S(=O)(=O)N2CCC3(CC2)C2=C(CC(C)(C)CC2=O)Nc2n[nH]cc23)c1 [Compound 947253] | ≤ 0.1 µM | ≤ 0.1 µM | – | – | IC50 [1, 5]: 0.1 to 1 µM; IC50 [2, 6]: 1 to 5 µM
CC1(C)CC(=O)C2=C(C1)Nc1n[nH]cc1C21CCN(S(=O)(=O)c2cccc(C#N)c2)CC1 [Compound 947254] | ≤ 0.1 µM | ≤ 0.1 µM | – | – | IC50 [1, 5]: ≤ 0.1 µM; IC50 [2, 6]: 0.1 to 1 µM
COc1ccc(S(=O)(=O)N2CCC3(CC2)C2=C(CC(C)(C)CC2=O)Nc2n[nH]cc23)c(F)c1 [Compound 947255] | – | – | ≤ 0.1 µM | ≤ 0.1 µM | IC50 [1, 5]: ≤ 0.1 µM; IC50 [2, 6]: 0.1 to 1 µM
CC1(C)CC(=O)C2=C(C1)Nc1n[nH]cc1C21CCN(S(=O)(=O)c2ccc(C(F)(F)F)cc2)CC1 [Compound 947256] | ≤ 0.1 µM | ≤ 0.1 µM | – | – | –
Cc1nn(C)c(C)c1S(=O)(=O)N1CCC2(CC1)C1=C(CC(C)(C)CC1=O)Nc1n[nH]cc12 [Compound 947257] | 0.1 to 1 µM | 1 to 5 µM | – | – | –
CC(C)n1ccc(S(=O)(=O)N2CCC3(CC2)C2=C(CC(C)(C)CC2=O)Nc2n[nH]cc23)n1 [Compound 947258] | ≤ 0.1 µM | ≤ 0.1 µM | – | – | –
COc1ncccc1S(=O)(=O)N1CCC2(CC1)C1=C(CC(C)(C)CC1=O)Nc1n[nH]cc12 [Compound 947260] | – | – | ≤ 0.1 µM | ≤ 0.1 µM | IC50 [1, 5]: ≤ 0.1 µM; IC50 [2, 6]: 0.1 to 1 µM
Cc1cccc(S(=O)(=O)N2CCC3(CC2)C2=C(CC(C)(C)CC2=O)Nc2n[nH]cc23)c1 [Compound 947261] | ≤ 0.1 µM | ≤ 0.1 µM | – | – | –
COc1cc(S(=O)(=O)N2CCC3(CC2)C2=C(CC(C)(C)CC2=O)Nc2n[nH]cc23)ccc1F [Compound 947263] | ≤ 0.1 µM | ≤ 0.1 µM | – | – | IC50 [1, 5]: 0.1 to 1 µM; IC50 [2, 6]: 1 to 5 µM
CC1(C)CC(=O)C2=C(C1)Nc1n[nH]cc1C21CCN(S(=O)(=O)c2cccc(C(F)F)c2)CC1 [Compound 947264] | – | – | ≤ 0.1 µM | ≤ 0.1 µM | IC50 [1, 5]: ≤ 0.1 µM; IC50 [2, 6]: 0.1 to 1 µM

Now from value to molecule, other results behind:

IC50 [1, 3] | IC50 [2, 4] | IC50 [1, 7] | IC50 [2, 8] | SMILES | further results
0.1 to 1 µM | 0.1 to 1 µM | – | – | CC1(C)CC(=O)C2=C(C1)Nc1n[nH]cc1C21CCN(S(=O)(=O)c2ccc(F)cn2)CC1 [Compound 947251] | –
≤ 0.1 µM | ≤ 0.1 µM | – | – | CCc1ncc(S(=O)(=O)N2CCC3(CC2)C2=C(CC(C)(C)CC2=O)Nc2n[nH]cc23)s1 [Compound 947252] | –
≤ 0.1 µM | ≤ 0.1 µM | – | – | Cc1nc(C)c(S(=O)(=O)N2CCC3(CC2)C2=C(CC(C)(C)CC2=O)Nc2n[nH]cc23)s1 [Compound 947259] | –
0.1 to 1 µM | 0.1 to 1 µM | – | – | CC1(C)CC(=O)C2=C(C1)Nc1n[nH]cc1C21CCN(S(=O)(=O)c2cc(F)ccn2)CC1 [Compound 947262] | –
– | – | ≤ 0.1 µM | 0.1 to 1 µM | CC1(C)CC(=O)C2=C(C1)Nc1n[nH]cc1C21COC2(CN(C(=O)C3CCC(F)(F)C3)C2)C1 (centres unmarked) [Compound 947265] | –
– | – | ≤ 0.1 µM | ≤ 0.1 µM | CC1CC(C(=O)N2CC3(C2)CC2(CO3)C3=C(CC(C)(C)CC3=O)Nc3n[nH]cc32)C1 (centres unmarked) [Compound 947266] | –
– | – | ≤ 0.1 µM | 0.1 to 1 µM | CC1(C)CC(=O)C2=C(C1)Nc1n[nH]cc1C21COC2(CN(C(=O)C3CCC(F)CC3)C2)C1 (centres unmarked) [Compound 947267] | –
– | – | ≤ 0.1 µM | ≤ 0.1 µM | CC1CCC(C(=O)N2CC3(C2)CC2(CO3)C3=C(CC(C)(C)CC3=O)Nc3n[nH]cc32)C1 (centres unmarked) [Compound 947268] | –
– | – | ≤ 0.1 µM | ≤ 0.1 µM | CC1CCC(CC(=O)N2CC3(C2)CC2(CO3)C3=C(CC(C)(C)CC3=O)Nc3n[nH]cc32)C1 (centres unmarked) [Compound 947269] | IC50 ([1]; read-out: GSK3-A (TR-FRET 1 mM ATP), GMean, IC50, 1 mM ATP, geometric mean): 0.1 to 1 µM; IC50 ([2]; read-out: GSK3-B (TR-FRET 1 mM ATP), GMean, IC50, 1 mM ATP, geometric mean): 0.1 to 1 µM
– | – | ≤ 0.1 µM | 0.1 to 1 µM | CCC(C)C(=O)N1CC2(C1)CC1(CO2)C2=C(CC(C)(C)CC2=O)Nc2n[nH]cc21 (centres unmarked) [Compound 947270] | –
